# Measurements reported in publication PMC10778758, “Dithioethanol (DTE)-Conjugated Deoxyribose Cyclic Dinucleotide Prodrugs (DTE-dCDNs) as STING Agonist” (International Journal of Molecular Sciences, 2023).
# Experiments:
# [1] = Release of parent dCDN from prodrug 9 initiated by DTT or GSH (HPLC); format: in vitro ADME
# Method: (§1) To analyze the reduction dependency, we performed the in vitro cleavage test by incubating prodrug 9 with a reductive substance such as GSH or DTT and cell lysates at 37 °C and then determined the change with HPLC. […] As the reductive substance or cell lysates were added, the peak for prodrug 9 disappeared and the new peaks at 1.2 min appeared in 0.5 h and 2 h, respectively. The released parent dCDN was also confirmed with 3′,3′-c-di-dAMP through UPLC-MS (Figure S1).
# Amounts of 10 mM DTT or GSH were added into prodrug 9 (100 μM) in an air-bath incubator at 37 °C for 0.5 h. Afterwards, 10 μL of each mixture was injected into HPLC for analysis. The HPLC methodology was the same as above.
# (§2) Figure 3 Parent dCDNs release in GSH, DTT (a), and cell lysates (b). An amount of 100 μM prodrug 9 was added into the 10 mM GSH, 10 mM DTT, and cell lysates for various times (0.5 h and 2 h) at 37 °C and analyzed with HPLC (Agilent 1260, Santa Clara, CA, USA).
# [2] = Release of parent dCDN from prodrug 9 in cell lysates (HPLC); format: in vitro ADME; conditions: 100 μM prodrug, 37 °C
# Method: as §1
# Prodrug 9 release parent drug initiated by cell lysates, DTT, and GSH. HEK 293T cells were plated in a 6-well plate at a density of 10^6 cell per well. After 48 h, the culture media was removed and washed with 500 μL PBS buffer. Cells were collected into 1.5 mL microtubes. An amount of 200 μL weak RIPA lysis buffer containing 1 mM protease inhibitor PMSF (LEAGENE, Trenton, NJ, USA) was added to each tube for 30 min. After centrifugation at 13,000 rpm for 10 min, the supernatant (180 μL) was transferred into a new tube. An amount of 100 μM prodrug 9 was added into the cell lysate (60 μL) in an air-bath incubator at 37 °C. […]
# as §2
# THP-1 cells [3] = test: RT-qPCR of cytokine mRNA levels in THP-1 cells; format: cell-based; conditions: 4 h
# Method: Real-time quantitative PCR (RT-qPCR). The mRNA expression levels of diverse cytokines were measured using quantitative RT-PCR (RT-qPCR) assays. THP-1 cells or CT26 cells were incubated with the compounds for 4 h, subsequently harvested for RNA isolation according to the manufacturer’s instructions of RNApure Tissue&Cell Kit (DNase I) (CWBIO, Cambridge, MA, USA catalogue no. CW0560S). Next, 1 μg RNA was reversely transcribed to cDNA by TransScript All-in-One First-Strand cDNA Synthesis SuperMix for qPCR (One-Step gDNA Removal) (TransGen, Beijing, China). To examine the mRNA levels, real-time PCR was performed in a CFX96 Real-Time PCR system (Bio-RAD, Hercules, CA, USA) using PerfectStart Green qPCR Super Mix (TransGen) and primers (Sangon Biotech, Shanghai, China). The expression level was calculated according to the formula (2^−∆∆Ct) using the GAPDH or β-actin as the internal reference gene and the relative gene expression fold was normalized to the DMSO-treated cells. The THP-1 and CT26 cell lines were obtained from American Type Culture Collection (ATCC, Manassas, VA, USA).
# Figure 7 Prodrug 9 improved the production of the type I interferons and proinflammatory cytokines in THP-1 cells. The mRNA expression levels of IFN-β (a), CXCL10 (b), IL-6 (c), and TNF-α (d) were assessed via real-time quantitative PCR (qPCR) under the treatment of prodrug 9 (10 μM), 3′,3′-c-di-dAMP (100 μM), 2′,3′-cGAMP (100 μM), and ADU-S100 (10 μM) for 4 h.
# THP-1 cells [4] = test: CCK8 cell viability, THP-1 cells; format: cell-based; conditions: 10 μM, 24 h
# Method: Cell viability of THP-1 and HEK293T cells. A total of 5 × 10^3 HEK293T cells or THP-1 cells were seeded in 96-well plates. […] Cell counting kit-8 (CCK8) (US EVERBRIGHT, Newport Beach, CA, USA, c6005) was then used to quantitatively assess the cell viability through the OD value at 450 nm. The HEK293T cell line was obtained from American Type Culture Collection (ATCC).
# Figure 8 Cell viability of THP-1 and HEK293T cells stimulated by prodrug 9 and 2′,3′-cGAMP. (a) A total of 5 × 10^3 THP-1 cells or (b) HEK293T cells were seeded in 96-well plates. Cells were stimulated with prodrug 9 (10 μM), 3′,3′-c-di-dAMP (100 μM), and 2′,3′-cGAMP (100 μM) for 24 h. Then, cell counting kit-8 (CCK8) (US EVERBRIGHT, c6005) was used to quantitatively assess cell viability through the OD value at 450 nm. Data are presented as mean ± SD, n = 3.
# [5] = THP-1, prodrug 9 10 μM vs 2′,3′-cGAMP 100 μM
# [6] = THP-1, prodrug 9 10 μM vs 3′,3′-c-di-dAMP 100 μM
# [7] = THP-1, prodrug 9 10 μM vs ADU-S100 10 μM
structure (smiles),measurement,setting,value
Nc1ncnc2c1ncn2C1CC2OP(=O)(OCCSSc3ccccn3)OCC3OC(n4cnc5c(N)ncnc54)CC3OP(=O)(OCCSSc3ccccn3)OCC2O1 (stereo not shown) [prodrug 9],time at which prodrug peak disappeared and parent dCDN peak appeared,"[1]; 100 μM prodrug, 10 mM GSH or DTT, 37 °C",0.5 h
same,time to decompose and release the parent dCDN,[1]; reductive substance GSH or DTT,30 min
same,time at which prodrug peak disappeared and parent dCDN peak appeared,[2],2 h
same,"CXCL10 mRNA expression, fold compared to 2′,3′-cGAMP",THP-1 cells [3]; [5],~17 fold
same,"IFN-β mRNA expression, fold compared to 2′,3′-cGAMP",THP-1 cells [3]; [5],approximately 40 fold
same,"IL-6 mRNA expression, fold compared to 2′,3′-cGAMP",THP-1 cells [3]; [5],~1.2 fold
same,"TNF-α mRNA expression, fold compared to 2′,3′-cGAMP",THP-1 cells [3]; [5],~46 fold
same,"CXCL10 mRNA expression, fold compared to 3′,3′-c-di-dAMP",THP-1 cells [3]; [6],~26 fold
same,"IFN-β mRNA expression, fold compared to 3′,3′-c-di-dAMP",THP-1 cells [3]; [6],approximately 43 fold
same,"IL-6 mRNA expression, fold compared to 3′,3′-c-di-dAMP",THP-1 cells [3]; [6],~1.4 fold
same,"TNF-α mRNA expression, fold compared to 3′,3′-c-di-dAMP",THP-1 cells [3]; [6],~12 fold
same,"CXCL10 mRNA expression, fold higher than ADU-S100",THP-1 cells [3]; [7],14 fold
same,"IFN-β mRNA expression, fold higher than ADU-S100",THP-1 cells [3]; [7],14 fold
same,"IL-6 mRNA expression, fold higher than ADU-S100",THP-1 cells [3]; [7],1.9 fold
same,"TNF-α mRNA expression, fold higher than ADU-S100",THP-1 cells [3]; [7],15 fold
same,"cell viability (CCK8), THP-1 cells",THP-1 cells [4],no significant influence on the growth
